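Step 1: Grow cells in 96-well plates. Step 2: Expose to compound for 48 hours at 5 concentrations. Step 3: Interpolate endpoints linearly; if unreached, use highest concentration. The concentration for full growth arrest is given as TGI.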
Experiments:
Test in all cases: NCI tumour cell line growth inhibition, 48 h
[1] = test system: KM12 colon
[2] = test system: SK-MEL-2 melanoma
[3] = test system: CAKI-1 renal
[4] = test system: OVCAR-8 ovarian
[5] = test system: K-562 leukemia
[6] = test system: MOLT-4 leukemia
[7] = test system: ACHN renal
[8] = test system: SN12C renal
[9] = test system: MALME-3M melanoma
[10] = test system: OVCAR-4 ovarian
[11] = test system: SF-268 CNS
[12] = test system: HOP-62 NSCLC
[13] = test system: HL-60(TB) leukemia
[14] = test system: LXFL 529 NSCLC
[15] = test system: TK-10 renal
[16] = test system: NCI-H460 lung
[17] = test system: OVCAR-5 ovarian
[18] = test system: HCC-2998 colon
[19] = test system: RPMI-8226 leukemia
[20] = test system: SK-MEL-5 melanoma
[21] = test system: KM20L2 colon
[22] = test system: CCRF-CEM leukemia
[23] = test system: SR leukemia
[24] = test system: DMS 114 small cell lung
[25] = test system: 786-0 renal
[26] = test system: SNB-19 CNS
[27] = test system: HCT-116 colon
[28] = test system: EKVX NSCLC
[29] = test system: HCT-15 colon
[30] = test system: UACC-257 melanoma
[31] = test system: SNB-78 CNS
[32] = test system: XF 498 CNS
[33] = test system: M19-MEL melanoma
[34] = test system: DMS 273 small cell lung
[35] = test system: NCI-H522 lung
[36] = test system: SK-MEL-28 melanoma
[37] = test system: OVCAR-3 ovarian
[38] = test system: COLO 205 colon
[39] = test system: A549 NSCLC
[40] = test system: NCI-H23 lung
[41] = test system: SW-620 colon
[42] = test system: SNB-75 CNS
[43] = test system: UACC-62 melanoma
[44] = test system: A498 renal
[45] = test system: DLD-1 colon
[46] = test system: SF-539 CNS
[47] = test system: U251 CNS
[48] = test system: LOX IMVI melanoma
[49] = test system: M14 melanoma
[50] = test system: HOP-92 NSCLC
[51] = test system: UO-31 renal
[52] = test system: RXF-631 renal
[53] = test system: SF-295 CNS
[54] = test system: HOP-18 NSCLC
[55] = test system: RXF 393 renal
[56] = test system: SK-OV-3 ovarian
[57] = test system: IGROV1 ovarian
[58] = test system: HT29 colon
[59] = test system: NCI-H226 lung

## CC(C)OP(=O)(OC(C)C)/C(Cl)=N/Nc1ccc([N+](=O)[O-])cc1
[1]
  TGI: > 100 µM
[2]
  TGI: > 100 µM
[3]
  TGI: > 100 µM
[4]
  TGI: > 100 µM
[5]
  TGI: > 100 µM
[6]
  TGI: > 100 µM
[7]
  TGI: > 100 µM
[8]
  TGI: > 100 µM
[9]
  TGI: > 100 µM
[10]
  TGI: > 100 µM
[11]
  TGI: > 100 µM
[12]
  TGI: > 100 µM
[13]
  TGI: > 100 µM
[14]
  TGI: > 100 µM
[15]
  TGI: > 100 µM
[16]
  TGI: > 100 µM
[17]
  TGI: > 100 µM
[18]
  TGI: > 100 µM
[19]
  TGI: > 100 µM
[20]
  TGI: > 100 µM
[21]
  TGI: > 100 µM
[22]
  TGI: > 100 µM
[23]
  TGI: > 100 µM
[24]
  TGI: > 100 µM
[25]
  TGI: > 100 µM
[26]
  TGI: > 100 µM
[27]
  TGI: > 100 µM
[28]
  TGI: > 100 µM
[29]
  TGI: > 100 µM
[30]
  TGI: > 100 µM
[31]
  TGI: > 100 µM
[32]
  TGI: > 100 µM
[33]
  TGI: > 100 µM
[34]
  TGI: > 100 µM
[35]
  TGI: > 100 µM
[36]
  TGI: > 100 µM
[37]
  TGI: > 100 µM
[38]
  TGI: > 100 µM
[39]
  TGI: > 100 µM
[40]
  TGI: > 100 µM
[41]
  TGI: > 100 µM
[42]
  TGI: > 100 µM
[43]
  TGI: > 100 µM
[44]
  TGI: > 100 µM
[45]
  TGI: > 100 µM
[46]
  TGI: > 100 µM
[47]
  TGI: > 100 µM
[48]
  TGI: > 100 µM
[49]
  TGI: > 100 µM
[50]
  TGI: > 100 µM
[51]
  TGI: > 100 µM

## N#Cc1c(-c2ccc(Cl)c(Cl)c2)c(-c2ccc(Cl)c(Cl)c2)nn(CC(=O)O)c1=O
[1]
  TGI: > 100 µM
[52]
  TGI: > 100 µM
[53]
  TGI: > 100 µM
[2]
  TGI: > 100 µM
[3]
  TGI: > 100 µM
[4]
  TGI: > 100 µM
[5]
  TGI: > 100 µM
[54]
  TGI: > 100 µM
[6]
  TGI: > 100 µM
[7]
  TGI: > 100 µM
[8]
  TGI: > 100 µM
[9]
  TGI: > 100 µM
[10]
  TGI: > 100 µM
[55]
  TGI: 53.9 µM
[56]
  TGI: > 100 µM
[12]
  TGI: > 100 µM
[13]
  TGI: > 100 µM
[14]
  TGI: > 100 µM
[15]
  TGI: > 100 µM
[16]
  TGI: > 100 µM
[57]
  TGI: > 100 µM
[17]
  TGI: > 100 µM
[18]
  TGI: > 100 µM
[19]
  TGI: > 100 µM
[20]
  TGI: > 100 µM
[21]
  TGI: 56.8 µM
[22]
  TGI: > 100 µM
[25]
  TGI: > 100 µM
[27]
  TGI: > 100 µM
[28]
  TGI: > 100 µM
[29]
  TGI: > 100 µM
[30]
  TGI: > 100 µM
[31]
  TGI: > 100 µM
[32]
  TGI: 98.4 µM
[33]
  TGI: > 100 µM
[34]
  TGI: > 100 µM
[58]
  TGI: > 100 µM
[36]
  TGI: > 100 µM
[37]
  TGI: 77.4 µM
[38]
  TGI: > 100 µM
[39]
  TGI: > 100 µM
[41]
  TGI: > 100 µM
[59]
  TGI: > 100 µM
[42]
  TGI: > 100 µM
[43]
  TGI: > 100 µM
[45]
  TGI: > 100 µM
[47]
  TGI: > 100 µM
[48]
  TGI: > 100 µM
[49]
  TGI: > 100 µM
[50]
  TGI: > 100 µM
[51]
  TGI: > 100 µM

## C/C(=C1/N=C(c2cc([N+](=O)[O-])ccc2Cl)N(c2cccc(C)c2)C1=O)c1cc2ccccc2oc1=O
[1]
  TGI: > 100 µM
[52]
  TGI: > 100 µM
[53]
  TGI: > 100 µM
[2]
  TGI: > 100 µM
[3]
  TGI: > 100 µM
[4]
  TGI: > 100 µM
[5]
  TGI: > 100 µM
[54]
  TGI: > 100 µM
[6]
  TGI: > 100 µM
[7]
  TGI: > 100 µM
[8]
  TGI: > 100 µM
[9]
  TGI: > 100 µM
[11]
  TGI: > 100 µM
[55]
  TGI: > 100 µM
[56]
  TGI: > 100 µM
[12]
  TGI: > 100 µM
[13]
  TGI: > 100 µM
[14]
  TGI: > 100 µM
[15]
  TGI: > 100 µM
[16]
  TGI: > 100 µM
[57]
  TGI: > 100 µM
[17]
  TGI: > 100 µM
[18]
  TGI: > 100 µM
[19]
  TGI: 72 µM
[20]
  TGI: 53.8 µM
[21]
  TGI: > 100 µM
[22]
  TGI: > 100 µM
[23]
  TGI: > 100 µM
[24]
  TGI: > 100 µM
[25]
  TGI: > 100 µM
[26]
  TGI: > 100 µM
[27]
  TGI: > 100 µM
[28]
  TGI: > 100 µM
[29]
  TGI: > 100 µM
[30]
  TGI: 77.3 µM
[31]
  TGI: > 100 µM
[32]
  TGI: 81.2 µM
[33]
  TGI: > 100 µM
[34]
  TGI: > 100 µM
[58]
  TGI: > 100 µM
[35]
  TGI: > 100 µM
[36]
  TGI: > 100 µM
[37]
  TGI: > 100 µM
[38]
  TGI: > 100 µM
[39]
  TGI: > 100 µM
[40]
  TGI: > 100 µM
[41]
  TGI: > 100 µM
[59]
  TGI: > 100 µM
[42]
  TGI: > 100 µM
[43]
  TGI: > 100 µM
[44]
  TGI: > 100 µM
[45]
  TGI: > 100 µM
[48]
  TGI: 37.1 µM
[49]
  TGI: > 100 µM
[50]
  TGI: > 100 µM
[51]
  TGI: > 100 µM

Source: PubChem BioAssay (NCI)
